Results as given in PMC4176827 (Molecular and biochemical parasitology, 2014).

Columns and labels:
[1] = target: T1, CpDHS (Cryptosporidium parvum, UniProt A3FQA5); assay: radiometric deoxyhypusine synthase assay; type: biochemical; settings: read-out: % inhibition at 1 μM
T1 sequence (A3FQA5 1-362): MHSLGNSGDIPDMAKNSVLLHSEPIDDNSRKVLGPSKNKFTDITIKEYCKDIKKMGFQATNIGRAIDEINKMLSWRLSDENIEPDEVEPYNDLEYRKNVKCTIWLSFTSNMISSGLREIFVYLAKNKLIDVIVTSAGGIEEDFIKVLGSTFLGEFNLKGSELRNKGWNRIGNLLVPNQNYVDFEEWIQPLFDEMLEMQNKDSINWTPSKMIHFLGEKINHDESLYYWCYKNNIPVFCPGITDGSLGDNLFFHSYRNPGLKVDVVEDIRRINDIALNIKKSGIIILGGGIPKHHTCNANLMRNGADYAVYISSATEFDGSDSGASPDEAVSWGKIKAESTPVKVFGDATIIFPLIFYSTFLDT

[2] = target: T1, CpDHS; assay: fluorescence of enzyme-bound NADH; type: biochemical; settings: 100 µM spermidine, no eIF5A, 0.2 M glycine buffer pH 9.2

| SMILES | inhibition at 1 µM [1] [%] | fluorescence of enzyme-bound NADH (excitation 340 nm, emission 441 nm) [2] |
| --- | --- | --- |
| N=C(N)NCCCCCCCN [GC7, N^1-guanyl-1,7-diaminoheptane] | > 90 |  |
| NC(=O)c1ccc[n+]([C@@H]2O[C@H](COP(=O)(O)OP(=O)(O)OC[C@H]3O[C@@H](n4cnc5c(N)ncnc54)[C@H](O)[C@@H]3O)[C@@H](O)[C@H]2O)c1 [NAD^+] |  | both spermidine and NAD^+ are required for NADH fluorescence |
